The text below walks through data of ChEMBL document CHEMBL5634077, “Recent advances in 1,2,3- and 1,2,4-triazole hybrids as antimicrobials and their SAR: A critical review” (2023).

Values after ≈ are worked out from the molar mass of the structure shown.

Assay [1] concerns Micrococcus luteus. Put plainly: Antibacterial activity against Micrococcus luteus assessed as reduction in microbial growth. Type of assay: functional.
The test system of assay [2] is Proteus vulgaris. Put plainly: Antibacterial activity against Proteus vulgaris assessed as reduction in bacterial growth. The class given is functional.
Assay [3] concerns Bacillus subtilis. Put plainly: Antibacterial activity against Bacillus subtilis assessed as reduction in bacterial growth. Type of assay: functional.
Assay [4] has as its system Escherichia coli. Put plainly: Antibacterial activity against Escherichia coli assessed as inhibition of bacterial growth. Type of assay: functional.
Assay [5] deals with Candida albicans. Put plainly: Antifungal activity against Candida albicans assessed as inhibition of fungal growth. Type of assay: functional.
The subject of another assay is Rhizopus. Put plainly: Antifungal activity against Rhizopus assessed as inhibition of fungal growth. The class given is functional.
Assay [6] deals with Aspergillus flavus. Put plainly: Antifungal activity against Aspergillus flavus assessed as inhibition of fungal growth. The class given is functional.
The subject of assay [7] is Staphylococcus aureus. Put plainly: Antibacterial activity against Staphylococcus aureus assessed as inhibition of bacterial growth. The class given is functional.
Assay [8] has as its system Klebsiella pneumoniae. Put plainly: Antibacterial activity against Klebsiella pneumoniae assessed as inhibition of bacterial growth. The class given is functional.
For assay [9], the system named is Staphylococcus aureus. Put plainly: Antibacterial activity against Staphylococcus aureus ATCC 29213 assessed as reduction in bacterial growth by micro-broth dilution method. The class given is functional.
The subject of assay [10] is Escherichia coli. Put plainly: Antibacterial activity against Escherichia coli ATCC 8739 assessed as reduction in bacterial growth by micro-broth dilution method. Type of assay: functional.
The subject of assay [11] is Pseudomonas aeruginosa. Put plainly: Antibacterial activity against Pseudomonas aeruginosa MCCB 0035 assessed as reduction in bacterial growth by micro-broth dilution method. The class given is functional.
Assay [12] has as its system Aspergillus niger. Put plainly: […] activity against Aspergillus niger NCIM 2191 assessed as reduction in […] by micro-broth dilution method. The class given is functional.
The subject of another assay is Aspergillus fumigatus. Put plainly: […] activity against Aspergillus fumigatus NCIM 2081 assessed as reduction in […] by micro-broth dilution method. The class given is functional.
The subject of assay [13] is Candida albicans. Put plainly: Antifungal activity against Candida albicans NCIM 2087 assessed as fungal growth inhibition. Type of assay: functional.
The test system of assay [14] is Pseudomonas aeruginosa. Put plainly: Antibacterial activity against Pseudomonas aeruginosa NCIM 2036 assessed as reduction in bacterial growth incubated for 18 to 24 hrs by broth microdilution method. The class given is functional. As to conditions: time 18-24 hrs.
Assay [15] has as its system Staphylococcus aureus. Put plainly: Antibacterial activity against Staphylococcus aureus NCIM 2079 assessed as reduction in bacterial growth incubated for 18 to 24 hrs by broth microdilution method. Type of assay: functional. The conditions noted are these: time 18-24 hrs.
A further assay relates to Bacillus cereus. Put plainly: Antibacterial activity against Bacillus cereus NCIM 2156 assessed as reduction in bacterial growth incubated for 18 to 24 hrs by broth microdilution method. Type of assay: functional. As to conditions: time 18-24 hrs.
Assay [16] has as its system Escherichia coli. Put plainly: Antibacterial activity against Escherichia coli NCIM 2065 assessed as reduction in bacterial growth incubated for 18 to 24 hrs by broth microdilution method. The class given is functional. As to conditions: time 18-24 hrs.
Assay [17] relates to Bacillus subtilis. Put plainly: Antibacterial activity against Bacillus subtilis NCIM 2063 assessed as reduction in bacterial growth incubated for 18 to 24 hrs by broth microdilution method. The class given is functional. The conditions noted are these: time 18-24 hrs.
The test system of the next assay is Proteus mirabilis. Put plainly: Antibacterial activity against Proteus mirabilis NCIM 2241 assessed as reduction in bacterial growth incubated for 18 to 24 hrs by broth microdilution method. Type of assay: functional. As to conditions: time 18-24 hrs.
Assay [18] relates to Proteus vulgaris. Put plainly: Antibacterial activity against Proteus vulgaris NCIM 2027 assessed as reduction in bacterial growth incubated for 18 to 24 hrs by broth microdilution method. Type of assay: functional. The conditions noted are these: time 18-24 hrs.
The test system of another assay is Salmonella typhimurium. Put plainly: Antibacterial activity against Salmonella typhimurium SL1344 assessed as reduction in microbial growth. As to conditions: Salmonella enterica. The class given is functional, Salmonella enterica subsp. enterica serovar Typhimurium.
In assay [19] the test system is Bacillus subtilis. Put plainly: Antibacterial activity against Bacillus subtilis ATCC 6633 assessed as reduction in microbial growth. Type of assay: functional.
Assay [20] has as its system Staphylococcus aureus. Put plainly: Antibacterial activity against Staphylococcus aureus ATCC 6538p assessed as reduction in microbial growth. Type of assay: functional.
Assay [21] concerns Escherichia coli. Put plainly: Antibacterial activity against Escherichia coli ATCC 25922 assessed as reduction in microbial growth. The class given is functional.
Assay [22] deals with Proteus vulgaris. Put plainly: Antibacterial activity against Proteus vulgaris ATCC 3851 assessed as reduction in microbial growth. Type of assay: functional.
Assay [23] relates to Micrococcus luteus. Put plainly: Antibacterial activity against Micrococcus luteus IFC 12708 assessed as reduction in microbial growth. The class given is functional.
Assay [24] relates to Staphylococcus aureus. Put plainly: Antibacterial activity against Staphylococcus aureus. Type of assay: functional.
Assay [25] concerns Escherichia coli. Put plainly: Antibacterial activity against Escherichia coli assessed as reduction in bacterial growth. Type of assay: functional.
The test system of assay [26] is Aspergillus niger. Put plainly: Antifungal activity against Aspergillus niger assessed as fungal growth inhibition. The class given is functional.
For assay [27], the system named is Escherichia coli. Put plainly: Antimicrobial activity against Escherichia coli assessed as diameter of inhibition zone incubated for 24 hrs by disc-diffusion method. Type of assay: functional.
The test system of assay [28] is Candida albicans. Put plainly: Antimicrobial activity against Candida albicans assessed as diameter of inhibition zone incubated for 24 hrs by disc-diffusion method. Type of assay: functional.
Assay [29] concerns Staphylococcus aureus. Put plainly: Antimicrobial activity against Staphylococcus aureus assessed as diameter of inhibition zone incubated for 24 hrs by disc-diffusion method. The class given is functional.
Assay [30] relates to Klebsiella pneumoniae. Put plainly: Antimicrobial activity against Klebsiella pneumoniae assessed as diameter of inhibition zone incubated for 24 hrs by disc-diffusion method. The class given is functional.
In assay [31] the test system is Escherichia coli. Put plainly: Antibacterial activity against Escherichia coli assessed as reduction in bacterial growth by broth microdilution method. The class given is functional.
The test system of assay [32] is Candida albicans. Put plainly: Antifungal activity against Candida albicans assessed as diameter of inhibition zone at 50 to 100 ug/ml by disc-diffusion method. Type of assay: functional. The conditions noted are these: dose 50-100 µg/ml.
In assay [33] the test system is Aspergillus flavus. Put plainly: Antifungal activity against Aspergillus flavus assessed as diameter of inhibition zone at 50 to 100 ug/ml by disc-diffusion method. Type of assay: functional. The conditions noted are these: dose 50-100 µg/ml.

On to `COc1ccc(-c2cc(-c3nnn(-c4ccccc4)c3C)no2)cc1`, for which the MIC in the assay with Micrococcus luteus [1] turned out to be 1.56 µg/mL; in the assay with Proteus vulgaris [2] it was 1.56 µg/mL (≈ 4.69 µM); in the assay with Bacillus subtilis [3] it was 1.56 µg/mL.
As for `COc1cc(N2CCC(c3n[nH]c(=S)n3-c3cccc(C(F)(F)F)c3)CC2)ccc1Cl`, the MIC with Escherichia coli [4] came to 4 µg/mL (≈ 8.53 µM); in the assay with Candida albicans [5], 8 µg/mL (≈ 17.1 µM); in the assay on Rhizopus, 8 µg/mL (≈ 17.1 µM); in the assay with Aspergillus flavus [6], 4 µg/mL (≈ 8.53 µM); in the assay with Staphylococcus aureus [7] it was 4 µg/mL (≈ 8.53 µM); in the assay with Klebsiella pneumoniae [8] it was 8 µg/mL (≈ 17.1 µM).
In the case of `COc1cc(N2CCC(c3n[nH]c(=S)n3-c3ccc(Cl)cc3)CC2)ccc1Cl`, the minimal inhibitory concentration (MIC) in the assay on Escherichia coli [4] worked out at 4 µg/mL (≈ 9.19 µM); in the assay with Candida albicans [5], 4 µg/mL (≈ 9.19 µM); in the assay on Rhizopus, 8 µg/mL (≈ 18.4 µM); with Aspergillus flavus [6], 8 µg/mL (≈ 18.4 µM); in the assay on Staphylococcus aureus [7], 8 µg/mL (≈ 18.4 µM); in the assay with Klebsiella pneumoniae [8], 8 µg/mL (≈ 18.4 µM).
Take `O=c1cc(-c2ccccc2)c2cc(F)ccc2n1Cc1nnc2n1N=C(c1ccccc1)CS2`: the MIC in the assay with Staphylococcus aureus [9] came out at 2 µg/mL (≈ 4.28 µM); in the assay on Escherichia coli [10], 8 µg/mL (≈ 17.1 µM); in the assay with Pseudomonas aeruginosa [11], 8 µg/mL (≈ 17.1 µM); in the assay with Aspergillus niger [12] it was 4 µg/mL (≈ 8.56 µM); in the assay on Aspergillus fumigatus it was 4 µg/mL (≈ 8.56 µM); in the assay on Candida albicans [13] it was 2 µg/mL (≈ 4.28 µM).
Take `NC(=O)NCn1nc(NCCCNc2ccnc3cc(Cl)ccc23)n(N)c1=S`: the minimum inhibitory concentration (MIC) in the assay with Pseudomonas aeruginosa [14] is 50 µg/mL (≈ 119 µM); in the assay on Staphylococcus aureus [15], 6.25 µg/mL (≈ 14.8 µM); in the assay on Bacillus cereus it was 3.12 µg/mL (≈ 7.41 µM); in the assay on Escherichia coli [16], 3.12 µg/mL (≈ 7.41 µM); in the assay with Bacillus subtilis [17], 12.5 µg/mL (≈ 29.6 µM); in the assay on Proteus mirabilis, 12.5 µg/mL (≈ 29.6 µM). The MIC with Proteus vulgaris [18] was 12.5 µg/mL (≈ 29.6 µM).
For the molecule `COc1cc(N2CCC(c3n[nH]c(=S)n3-c3cc(Cl)cc(Cl)c3)CC2)ccc1Cl`, the minimum inhibitory concentration (MIC) with Escherichia coli [4] turned out to be 8 µg/mL (≈ 17 µM); with Candida albicans [5] it was 16 µg/mL (≈ 34.1 µM); with Rhizopus it was 32 µg/mL (≈ 68.1 µM); with Aspergillus flavus [6], 32 µg/mL (≈ 68.1 µM); in the assay on Staphylococcus aureus [7], 16 µg/mL (≈ 34.1 µM); in the assay on Klebsiella pneumoniae [8], 8 µg/mL (≈ 17 µM).
Take `Cc1c(-c2nn(-c3ccccc3)cc2C2SCC(=O)N2c2ccc(F)cc2)nnn1-c1ccccc1` (stereo not given): the minimum inhibitory concentration (MIC) in the assay on Salmonella typhimurium, in the assay on Bacillus subtilis [19], in the assay on Staphylococcus aureus [20], in the assay with Escherichia coli [21], in the assay on Proteus vulgaris [22] and in the assay on Micrococcus luteus [23] was 1.56 µg/mL in each case.
On to `CC(=O)NCn1nc(NCCCNc2ccnc3cc(Cl)ccc23)n(N)c1=S`, for which the MIC turned out to be 25 µg/mL (≈ 59.4 µM) with Pseudomonas aeruginosa [14]; 6.25 µg/mL (≈ 14.8 µM) in the assay on Staphylococcus aureus [15]; 6.25 µg/mL (≈ 14.8 µM) in the assay with Bacillus cereus; 12.5 µg/mL (≈ 29.7 µM) in the assay with Escherichia coli [16]; 12.5 µg/mL (≈ 29.7 µM) with Bacillus subtilis [17]; 12.5 µg/mL (≈ 29.7 µM) in the assay on Proteus mirabilis. Besides, the MIC with Proteus vulgaris [18] is 12.5 µg/mL (≈ 29.7 µM).
In the case of `Cc1ccc(NC(=O)Cn2cc(COc3ccc(C(=O)/C=C/c4ccccc4)cc3)nn2)cc1`, the values for the minimum inhibitory concentration (MIC) against Staphylococcus aureus [24] and in the assay with Bacillus subtilis [3] were 13 µM (≈ 5.88 µg/mL) and 13 µM, respectively.
In the assay with Staphylococcus aureus [24], `COc1ccc(NC(=O)NCc2cn(CC(=O)Nc3ccc(C(F)(F)F)cc3)nn2)cc1` gave a minimal inhibitory concentration (MIC) of 27 µM (≈ 12.1 µg/mL).
`O=C(Cn1cc(COc2ccc(C(=O)/C=C/c3ccccc3)cc2)nn1)Nc1ccc([N+](=O)[O-])cc1`: the MIC in the assay on Escherichia coli [25] and in the assay on Aspergillus niger [26] was 12 µM (≈ 5.8 µg/mL) each time.
Consider `COc1cc(/C=N/n2c(-c3ccc(Cl)cc3Cl)n[nH]c2=S)ccc1O`, for which the “diameter of the inhibition zone (DIZ)” value with Escherichia coli [27], with Candida albicans [28], in the assay on Staphylococcus aureus [29] and with Klebsiella pneumoniae [30] was 3 mm each time.
In the case of `CC(C)Cc1ccc(C(C)C(=O)NC(Cc2cn(Cc3cn(CC(=O)Nc4ccccc4[N+](=O)[O-])nn3)c3ccccc23)C(=O)NC(Cc2ccccc2)C(N)=O)cc1` (stereo not given), the minimal inhibitory concentration (MIC) with Escherichia coli [31] turned out to be 25 µg/mL (≈ 31.3 µM).
As for `COc1cc(N2CCC(c3n[nH]c(=S)n3-c3cccc(Cl)c3)CC2)ccc1Cl`, the MIC in the assay on Escherichia coli [4] came to 8 µg/mL (≈ 18.4 µM); with Candida albicans [5], 8 µg/mL (≈ 18.4 µM); in the assay with Rhizopus, 8 µg/mL (≈ 18.4 µM); in the assay on Aspergillus flavus [6], 4 µg/mL (≈ 9.19 µM); in the assay on Staphylococcus aureus [7], 4 µg/mL (≈ 9.19 µM); in the assay with Klebsiella pneumoniae [8], 4 µg/mL (≈ 9.19 µM).
`CC(=O)N1CCN(c2ccc(OCC3COC(Cn4ccnc4)(c4ccc(Cl)cc4Cl)O3)cc2)CC1` (stereo not given) [KETOCONAZOLE]: the “diameter of the inhibition zone (DIZ)” value in the assay with Candida albicans [32] and in the assay on Aspergillus flavus [33] was 14 mm each time.
